Measurements taken from patent US7439380B2, “Diarylbutadiene-substituted diorganopolysiloxanes and photoprotective compositions comprised thereof” (L'Oreal, priority 2003, dated 2008).

Assay: UV absorption spectrum in ethanol
Assay type: physicochemical
Conditions: for UV E1% / UV εmax: at λmax

| SMILES | UV λmax | UV E1% | UV εmax |
| --- | --- | --- | --- |
| CCOC(=O)/C(=C/C=C(c1ccccc1)c1ccccc1)C(=O)OCC(C)C[Si](C)(O[Si](C)(C)C)O[Si](C)(C)C (stereo not drawn) [Example 1, monoethyl mono-3-[1,3,3,3-tetramethyl-1-[(trimethylsilyl)oxy]disiloxanyl]-2-methylpropyl 2-(3,3-diphenylprop-2-enylene)malonate] | 333 nm | 660 | 39 530 |
| C[Si](C)(C)O[Si](C)(CCCOC(=O)/C(C#N)=C\C=C(c1ccccc1)c1ccccc1)O[Si](C)(C)C [Example 3, 3-[1,3,3,3-tetramethyl-1-[(trimethylsilyl)oxy]disiloxanyl]propyl 2-cyano-5,5-diphenylpenta-2,4-dienoate] | 358 nm | 574 | 30 874 |
| C[Si](C)(C)O[Si](C)(CCCNC(=O)/C(C#N)=C/C=C(c1ccccc1)c1ccccc1)O[Si](C)(C)C [Example 5, N-[3-[1,3,3,3-tetramethyl-1-[(trimethylsilyl)oxy]disiloxanyl]propyl]-2-cyano-5,6-diphenylpenta-2,4-dienamide] | 351 nm | 515 | 27 650 |
| CC(COC(=O)C(=CC=C(c1ccccc1)c1ccccc1)C(=O)OCC(C)C[Si](C)(O[Si](C)(C)C)O[Si](C)(C)C)C[Si](C)(O[Si](C)(C)C)O[Si](C)(C)C (stereo not drawn) [Example 6] | 330 nm | 346 | 28 650 |
| CCOC(=O)/C(=C\C=C(c1ccccc1)c1ccccc1)C(=O)NCCC[Si](C)(O[Si](C)(C)C)O[Si](C)(C)C [Example 7, ethyl 4,4-diphenyl-1,3-diene-N-[3-[1,3,3,3-tetramethyl-1-[(trimethylsilyl)oxy]disiloxanyl]propyl]-2-(4,4-diphenylprop-2-ethylene)malonamide] | 335 nm | 542 | 31 650 |
